Measurements from PubChem BioAssay (NCI).
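These data come from cells grown in 96-well plates and exposed to compound for 48 hours at five concentrations. Abbreviation: GI50, concentration required for 50% inhibition of growth. At the TGI there is no net growth.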

Legend:
Test in all cases: DTP human tumour cell line panel, 48 h; in the data active means GI50 below about 0.43 µM; inactive means the rest
786-0 renal = system: 786-0 renal
A549 NSCLC = system: A549 NSCLC
ACHN renal = system: ACHN renal
BT-549 breast = system: BT-549 breast
CAKI-1 renal = system: CAKI-1 renal
CCRF-CEM leukemia = system: CCRF-CEM leukemia
COLO 205 colon = system: COLO 205 colon
DU-145 prostate = system: DU-145 prostate
EKVX NSCLC = system: EKVX NSCLC
HCT-15 colon = system: HCT-15 colon
HL-60(TB) leukemia = system: HL-60(TB) leukemia
HOP-62 NSCLC = system: HOP-62 NSCLC
HOP-92 NSCLC = system: HOP-92 NSCLC
HS 578T breast = system: HS 578T breast
HT29 colon = system: HT29 colon
IGROV1 ovarian = system: IGROV1 ovarian
K-562 leukemia = system: K-562 leukemia
KM12 colon = system: KM12 colon
LOX IMVI melanoma = system: LOX IMVI melanoma
M14 melanoma = system: M14 melanoma
MALME-3M melanoma = system: MALME-3M melanoma
MCF7 breast = system: MCF7 breast
MDA-MB-231 breast = system: MDA-MB-231 breast
MDA-MB-435 = system: MDA-MB-435
MOLT-4 leukemia = system: MOLT-4 leukemia
NCI-H226 lung = system: NCI-H226 lung
NCI-H23 lung = system: NCI-H23 lung
NCI-H460 lung = system: NCI-H460 lung
NCI-H522 lung = system: NCI-H522 lung
NCI/ADR-RES ovarian = system: NCI/ADR-RES ovarian
OVCAR-3 ovarian = system: OVCAR-3 ovarian
OVCAR-4 ovarian = system: OVCAR-4 ovarian
OVCAR-5 ovarian = system: OVCAR-5 ovarian
OVCAR-8 ovarian = system: OVCAR-8 ovarian
PC-3 prostate = system: PC-3 prostate
RPMI-8226 leukemia = system: RPMI-8226 leukemia
RXF 393 renal = system: RXF 393 renal
SF-268 CNS = system: SF-268 CNS
SF-295 CNS = system: SF-295 CNS
SF-539 CNS = system: SF-539 CNS
SK-MEL-2 melanoma = system: SK-MEL-2 melanoma
SK-MEL-28 melanoma = system: SK-MEL-28 melanoma
SK-MEL-5 melanoma = system: SK-MEL-5 melanoma
SK-OV-3 ovarian = system: SK-OV-3 ovarian
SN12C renal = system: SN12C renal
SNB-19 CNS = system: SNB-19 CNS
SNB-75 CNS = system: SNB-75 CNS
SR leukemia = system: SR leukemia
SW-620 colon = system: SW-620 colon
T-47D breast = system: T-47D breast
TK-10 renal = system: TK-10 renal
U251 CNS = system: U251 CNS
UACC-257 melanoma = system: UACC-257 melanoma
UACC-62 melanoma = system: UACC-62 melanoma
UO-31 renal = system: UO-31 renal

COC(=O)C1=C(C(=O)OC)SC(=C(Cl)C(=S)Oc2ccccc2N)S1
41.1 µM: TGI (SF-295 CNS)
35.5 µM: TGI (SF-539 CNS)
> 50 µM: TGI (786-0 renal) | TGI (A549 NSCLC) | TGI (ACHN renal) | TGI (CCRF-CEM leukemia) | TGI (COLO 205 colon) | TGI (DU-145 prostate) | TGI (EKVX NSCLC) | TGI (HCT-15 colon) | TGI (HL-60(TB) leukemia) | TGI (HOP-92 NSCLC) | TGI (HT29 colon) | TGI (K-562 leukemia) | TGI (KM12 colon) | TGI (MALME-3M melanoma) | TGI (MDA-MB-231 breast) | TGI (MOLT-4 leukemia) | TGI (NCI-H226 lung) | TGI (NCI-H23 lung) | TGI (NCI-H460 lung) | TGI (OVCAR-4 ovarian) | TGI (OVCAR-5 ovarian) | TGI (OVCAR-8 ovarian) | TGI (PC-3 prostate) | TGI (RPMI-8226 leukemia) | TGI (RXF 393 renal) | TGI (SF-268 CNS) | TGI (SK-MEL-28 melanoma) | TGI (SK-OV-3 ovarian) | TGI (SN12C renal) | TGI (SNB-19 CNS) | TGI (SNB-75 CNS) | TGI (SW-620 colon) | TGI (T-47D breast) | TGI (TK-10 renal) | TGI (U251 CNS) | TGI (UACC-62 melanoma)
17.7 µM: TGI (SK-MEL-5 melanoma)
35 µM: TGI (SR leukemia)
21.6 µM: TGI (BT-549 breast)
34.2 µM: TGI (HS 578T breast)
29.4 µM: TGI (M14 melanoma)
37.1 µM: TGI (NCI/ADR-RES ovarian)
17 µM: TGI (MDA-MB-435)
26.1 µM: TGI (SK-MEL-2 melanoma)
inactive: GI50 (786-0 renal) 12.3 µM | GI50 (A549 NSCLC) 18.1 µM | GI50 (ACHN renal) 15 µM | GI50 (BT-549 breast) 10.2 µM | GI50 (CAKI-1 renal) 13.5 µM | GI50 (CCRF-CEM leukemia) > 50 µM | GI50 (COLO 205 colon) 26.7 µM | GI50 (DU-145 prostate) 19.8 µM | GI50 (EKVX NSCLC) 46.5 µM | GI50 (HCT-15 colon) 16.4 µM | GI50 (HL-60(TB) leukemia) 14.5 µM | GI50 (HOP-62 NSCLC) 20.1 µM | GI50 (HOP-92 NSCLC) 37.3 µM | GI50 (HS 578T breast) 15.6 µM | GI50 (HT29 colon) 33.7 µM | GI50 (IGROV1 ovarian) 3.79 µM | GI50 (K-562 leukemia) 15.8 µM | GI50 (KM12 colon) > 50 µM | GI50 (LOX IMVI melanoma) 9.16 µM | GI50 (M14 melanoma) 10.8 µM | GI50 (MALME-3M melanoma) 18.6 µM | GI50 (MCF7 breast) 5.95 µM | GI50 (MDA-MB-231 breast) 28 µM | GI50 (MDA-MB-435) 8.94 µM | GI50 (MOLT-4 leukemia) 25 µM | GI50 (NCI-H226 lung) 20.5 µM | GI50 (NCI-H23 lung) 10.6 µM | GI50 (NCI-H460 lung) 13.4 µM | GI50 (NCI-H522 lung) 10.4 µM | GI50 (NCI/ADR-RES ovarian) 13.9 µM | GI50 (OVCAR-3 ovarian) 10.8 µM | GI50 (OVCAR-4 ovarian) > 50 µM | GI50 (OVCAR-5 ovarian) 37 µM | GI50 (OVCAR-8 ovarian) 18.7 µM | GI50 (PC-3 prostate) 17.9 µM | GI50 (RPMI-8226 leukemia) 17.9 µM | GI50 (RXF 393 renal) 8.38 µM | GI50 (SF-268 CNS) 15.9 µM | GI50 (SF-295 CNS) 13.7 µM | GI50 (SF-539 CNS) 13.4 µM | GI50 (SK-MEL-2 melanoma) 10.2 µM | GI50 (SK-MEL-28 melanoma) > 50 µM | GI50 (SK-MEL-5 melanoma) 8.43 µM | GI50 (SK-OV-3 ovarian) 22.3 µM | GI50 (SN12C renal) 18.2 µM | GI50 (SNB-19 CNS) 25.8 µM | GI50 (SNB-75 CNS) 35.1 µM | GI50 (SR leukemia) 12.9 µM | GI50 (SW-620 colon) 24.2 µM | GI50 (T-47D breast) > 50 µM | GI50 (TK-10 renal) 49.5 µM | GI50 (U251 CNS) 16.2 µM | GI50 (UACC-257 melanoma) 9.44 µM | GI50 (UACC-62 melanoma) 16.5 µM | GI50 (UO-31 renal) 10.6 µM
36.1 µM: TGI (OVCAR-3 ovarian)
31.3 µM: TGI (NCI-H522 lung)
40.7 µM: TGI (CAKI-1 renal)
17.3 µM: TGI (MCF7 breast)
22.3 µM: TGI (LOX IMVI melanoma)
14.5 µM: TGI (IGROV1 ovarian)
42.1 µM: TGI (HOP-62 NSCLC)
35.6 µM: TGI (UO-31 renal)
18.8 µM: TGI (UACC-257 melanoma)
